Data published in patent US20230263822A1, “MODULATION OF FACTOR 11 EXPRESSION” (Ionis Pharmaceuticals, Inc., priority 2008, published 2023).
Strand notation (5' to 3'): a small letter for the sugar, then the base; units joined by * are phosphorothioate-linked, units joined directly phosphodiester-linked; [ ] holds rarer units or linkages, { } end groups; capitals alone tell only the bases. e = 2'-O-(2-methoxyethyl) (MOE); [5mC] = 5-methylcytosine; d = 2'-deoxy (DNA)

Columns and labels:
Type in all cases: cell-based
human Factor 11 mRNA [1] = assay: Antisense inhibition of human Factor 11 in HepG2 cells, lipofectin, 75 nM (Example 1); settings: 75 nM antisense oligonucleotide, ~24 h, relative to untreated control cells, gapmers targeted to SEQ ID NO: 1
Experimental: Antisense oligonucleotides targeted to a Factor 11 nucleic acid were tested for their effects on Factor 11 mRNA in vitro. Cultured HepG2 cells at a density of 10,000 cells per well were transfected using lipofectin reagent with 75 nM antisense oligonucleotide. After a treatment period of approximately 24 hours, RNA was isolated from the cells and Factor 11 mRNA levels were measured by quantitative real time PCR. Factor 11 mRNA levels were adjusted according to total RNA content, as measured by RIBOGREEN. Results are presented as percent inhibition of Factor 11, relative to untreated control cells.
The chimeric antisense oligonucleotides in Tables 1 and 2 were designed as 5-10-5 MOE gapmers. The gapmers are 20 nucleotides in length, wherein the central gap segment is comprised of 10 2′-deoxynucleotides and is flanked on both sides (in the 5′ and 3′ directions) by wings comprising 5 nucleotides each. Each nucleotide in the 5′ wing segment and each nucleotide in the 3′ wing segment has a 2′-MOE modification. The internucleoside linkages throughout each gapmer are phosphorothioate (P=S) linkages. All cytidine residues throughout each gapmer are 5-methylcytidines. “Target start site” indicates the 5′-most nucleotide to which the gapmer is targeted. “Target stop site” indicates the 3′-most nucleotide to which the gapmer is targeted. Each gapmer listed in Table 1 is targeted to SEQ TD NO: 1 (GENBANK Accession No. NM_000128.3) and each gapmer listed in Table 2 is targeted to SEQ TD NO: 2 (GENBANK Accession No. NT_022792.17, truncated from 19598000 to 19624000).

human Factor 11 mRNA [2] = assay: Dose-dependent inhibition of human Factor 11 in HepG2 cells, electroporation 0.7-20 uM (Example 4)
Experimental: (§1) The gapmers were also transfected via electroporation and their dose dependent inhibition of human Factor 11 mRNA was measured. Cells were plated at a density of 20,000 cells per well and transfected via electroporation with 0.7 μM, 2.2 μM, 6.7 μM, and 20 μM concentrations of antisense oligonucleotide, as specified in Table 10. After a treatment period of approximately 16 hours, RNA was isolated from the cells and Factor 11 mRNA levels were measured by quantitative real-time PCR. Human Factor 11 primer probe set RTS 2966 was used to measure mRNA levels. Factor 11 mRNA levels were adjusted according to total RNA content, as measured by RIBOGREEN. Results are presented as percent inhibition of Factor 11, relative to untreated control cells.

human Factor 11 mRNA [3] = assay: Antisense inhibition of human Factor 11 in HepG2 cells by microwalk gapmers, lipofectin, 75 nM (Example 3); settings: HepG2 cells, lipofectin, gapmers targeted to nucleobases 1275 to 1318 of SEQ ID NO: 1
Procedure, shortened: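 HepG2 cells (10,000/well) were transfected via lipofectin with 75 nM 20-mer MOE gapmers (phosphorothioate, 5-methyl-C) for about 24 h. Factor 11 mRNA was measured by qRT-PCR, normalized to RIBOGREEN total RNA, and given as percent inhibition versus untreated cells.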

human Factor 11 mRNA [4] = assay: Dose-dependent inhibition of human Factor 11 in HepG2 cells, lipofectin 9.375-75 nM (Example 4)
Experimental: as §1, with “Cells” for “The gapmers were also transfected via electroporation and their dose dependent inhibition of human Factor 11 mRNA was measured. Cells”, “10,000” for “20,000”, “using lipofectin reagent” for “via electroporation”, “9.375 nM, 18.75 nM, 37.5 nM” for “0.7 μM, 2.2 μM, 6.7 μM,”, “75 nM” for “20 μM”, “9.” for “10.”

Substance | % inhibition (human Factor 11 mRNA [1]) | also measured
412187 (antisense eT*eT*e[5mC]*eA*eA*dA*d[5mC]*dA*dA*dG*dT*dG*dA*d[5mC]*dA*eT*eA*e[5mC]*eA*e[5mC]) [compound 412187] | 21% | –
412188 (antisense eT*eG*eA*eG*eA*dG*dA*dA*dT*dT*dG*d[5mC]*dT*dT*dG*e[5mC]*eT*eT*eT*e[5mC]) [compound 412188] | 21% | –
412189 (antisense eA*eA*eA*eT*eA*dT*dA*d[5mC]*d[5mC]*dT*dT*dG*dA*dG*dA*eG*eA*eA*eT*eT) [compound 412189] | 8% | –
412190 (antisense eA*eG*eT*eA*eT*dG*dT*d[5mC]*dA*dG*dA*dA*dA*dT*dA*eT*eA*e[5mC]*e[5mC]*eT) [compound 412190] | 24% | –
412191 (antisense eT*eT*eA*eA*eA*dA*dT*d[5mC]*dT*dT*dA*dG*dT*dA*dT*eG*eT*e[5mC]*eA*eG) [compound 412191] | 14% | –
412192 (antisense e[5mC]*eA*eG*e[5mC]*eA*dT*dA*dT*dT*dT*dG*dT*dG*dA*dA*eA*eG*eT*e[5mC]*eG) [compound 412192] | 44% | –
412193 (antisense eT*eG*eT*eG*eT*dA*dG*dG*dA*dA*dA*dT*dG*dG*dT*e[5mC]*eA*e[5mC]*eT*eT) [compound 412193] | 38% | –
412194 (antisense eT*eG*e[5mC]*eA*eA*dT*dT*d[5mC]*dT*dT*dA*dA*dT*dA*dA*eG*eG*eG*eT*eG) [compound 412194] | 80% | –
412195 (antisense eA*eA*eA*eT*e[5mC]*dA*dT*d[5mC]*d[5mC]*dT*dG*dA*dA*dA*dA*eG*eA*e[5mC]*e[5mC]*eT) [compound 412195] | 22% | –
412196 (antisense eT*eG*eA*eT*eA*dT*dA*dA*dG*dA*dA*dA*dA*dT*d[5mC]*eA*eT*e[5mC]*e[5mC]*eT) [compound 412196] | 25% | –
412197 (antisense eA*e[5mC]*eA*e[5mC]*eA*dT*dT*d[5mC]*dA*d[5mC]*d[5mC]*dA*dG*dA*dA*eA*e[5mC]*eT*eG*eA) [compound 412197] | 45% | –
412198 (antisense eT*eT*e[5mC]*eA*eG*dG*dA*d[5mC]*dA*d[5mC]*dA*dA*dG*dT*dA*eA*eA*e[5mC]*e[5mC]*eA) [compound 412198] | 21% | –
412199 (antisense eT*eT*e[5mC]*eA*e[5mC]*dT*d[5mC]*dT*dT*dG*dG*d[5mC]*dA*dG*dT*eG*eT*eT*eT*e[5mC]) [compound 412199] | 66% | –
412200 (antisense eA*eA*eG*eA*eA*dT*dA*d[5mC]*d[5mC]*d[5mC]*dA*dG*dA*dA*dA*eT*e[5mC]*eG*e[5mC]*eT) [compound 412200] | 59% | –
412201 (antisense e[5mC]*eA*eT*eT*eG*d[5mC]*dT*dT*dG*dA*dA*dA*dG*dA*dA*eT*eA*e[5mC]*e[5mC]*e[5mC]) [compound 412201] | 66% | –
412202 (antisense eT*eT*eG*eG*eT*dG*dT*dG*dA*dG*d[5mC]*dA*dT*dT*dG*e[5mC]*eT*eT*eG*eA) [compound 412202] | 65% | –
412205 (antisense eG*eT*eT*eT*eA*dT*dG*d[5mC]*d[5mC]*d[5mC]*dT*dT*d[5mC]*dA*dT*eG*eT*e[5mC]*eT*eA) [compound 412205] | 69% | –

Substance | % inhibition (human Factor 11 mRNA [1]) | also measured
412207 (antisense e[5mC]*eG*eT*eG*eA*dA*dA*dA*dA*dG*dT*dG*dG*d[5mC]*dA*eG*eT*eG*eG*eA) [compound 412207] | 64% | –
412208 (antisense eA*eG*eA*e[5mC]*eA*dA*dA*dT*dG*dT*dT*dA*d[5mC]*dG*dA*eT*eG*e[5mC]*eT*e[5mC]) [compound 412208] | 73% | –
412209 (antisense eG*eT*eG*e[5mC]*eT*dT*d[5mC]*dA*dG*dT*dA*dG*dA*d[5mC]*dA*eA*eA*eT*eG*eT) [compound 412209] | 91% | –
412210 (antisense eT*eG*e[5mC]*eA*e[5mC]*dA*dG*dG*dA*dT*dT*dT*d[5mC]*dA*dG*eT*eG*eA*eA*eA) [compound 412210] | 73% | –
412211 (antisense eG*eA*eT*eT*eA*dG*dA*dA*dA*dG*dT*dG*d[5mC]*dA*d[5mC]*eA*eG*eG*eA*eT) [compound 412211] | 64% | –
412214 (antisense eT*e[5mC]*e[5mC]*eT*eG*dG*dG*dA*dA*dA*dA*dG*dA*dA*dG*eG*eT*eA*eA*eA) [compound 412214] | 58% | –
412216 (antisense eA*eA*eA*eG*eA*dT*dT*dT*d[5mC]*dT*dT*dT*dG*dA*dG*eA*eT*eT*e[5mC]*eT) [compound 412216] | 43% | –
412217 (antisense eA*eA*eT*e[5mC]*e[5mC]*dA*d[5mC]*dT*d[5mC]*dT*d[5mC]*dA*dG*dA*dT*eG*eT*eT*eT*eT) [compound 412217] | 47% | –
412218 (antisense eA*eA*e[5mC]*e[5mC]*eA*dG*dA*dA*dA*dG*dA*dG*d[5mC]*dT*dT*eT*eG*e[5mC]*eT*e[5mC]) [compound 412218] | 27% | –
412219 (antisense eG*eG*e[5mC]*eA*eG*dA*dA*d[5mC]*dA*d[5mC]*dT*dG*dG*dG*dA*eT*eG*e[5mC]*eT*eG) [compound 412219] | 56% | –
412220 (antisense eT*eG*eG*eT*eA*dA*dA*dA*dT*dG*dA*dA*dG*dA*dA*eT*eG*eG*e[5mC]*eA) [compound 412220] | 58% | –
412221 (antisense eA*eT*e[5mC]*eA*eG*dT*dG*dT*d[5mC]*dA*dT*dG*dG*dT*dA*eA*eA*eA*eT*eG) [compound 412221] | 48% | –
412222 (antisense eA*eA*e[5mC]*eA*eA*dT*dA*dT*d[5mC]*d[5mC]*dA*dG*dT*dT*d[5mC]*eT*eT*e[5mC]*eT*e[5mC]) [compound 412222] | 5% | –
412226 (antisense eT*eT*eG*eA*eA*dG*dA*dA*dA*dG*d[5mC]*dT*dT*dT*dA*eA*eG*eT*eA*eA) [compound 412226] | 17% | –
412227 (antisense eA*eG*eT*eA*eT*dT*dT*dT*dA*dG*dT*dT*dG*dG*dA*eG*eA*eT*e[5mC]*e[5mC]) [compound 412227] | 75% | –
417000 (antisense eT*eG*d[5mC]*dA*d[5mC]*dA*dG*dT*dT*dT*d[5mC]*dT*dG*dG*d[5mC]*eA*eG*eG*e[5mC]*e[5mC]) [compound 417000] | – | IC50 (human Factor 11 mRNA [2]): 0.6 µM; percent inhibition of Factor 11 at 0.7 μM (human Factor 11 mRNA [2]; 0.7 μM, relative to untreated control cells): 46%; percent inhibition of Factor 11 at 2.2 μM (human Factor 11 mRNA [2]; 2.2 μM, relative to untreated control cells): 73%; percent inhibition of Factor 11 at 6.7 μM (human Factor 11 mRNA [2]; 6.7 μM, relative to untreated control cells): 76%; percent inhibition of Factor 11 at 20 μM (human Factor 11 mRNA [2]; 20 μM, relative to untreated control cells): 89%; % inhibition (human Factor 11 mRNA [3]): 89%; IC50 (human Factor 11 mRNA [4]): 0.023 µM; percent inhibition of Factor 11 at 9.375 nM (human Factor 11 mRNA [4]; 9.375 nM, relative to untreated control cells): 35%; percent inhibition of Factor 11 at 18.75 nM (human Factor 11 mRNA [4]; 18.75 nM, relative to untreated control cells): 47%; percent inhibition of Factor 11 at 37.5 nM (human Factor 11 mRNA [4]; 37.5 nM, relative to untreated control cells): 58%; percent inhibition of Factor 11 at 75 nM (human Factor 11 mRNA [4]; 75 nM, relative to untreated control cells): 70%
